Assay results: article PMC7939445, “Exploitation of dihydroorotate dehydrogenase (DHODH) and p53 activation as therapeutic targets: A case study in polypharmacology” (The Journal of Biological Chemistry, 2021)
Like-named read-outs stand apart in the source and are kept apart here.

What was measured:
recombinant human DHODH [1] = target: T1, recombinant human DHODH (Homo sapiens, UniProt Q02127); experiment: DHODH enzymatic assay (kinetic, DCIP reduction); format: biochemical
T1 construct: made in house
Experimental: Enzyme assays were performed with 6 nM recombinant human DHODH prepared as described ([36]). The reaction mixture for these kinetic assays consisted of 1 mM DHO, 100 μM 2,3-dimethoxy-5-methyl-p-benzoquinone (Sigma–Aldrich #D9150), and 100 μM 2,6-dichlorophenolindophenol sodium salt (DCIP; Sigma–Aldrich #D1878) in enzyme buffer (50 mM Tris-HCl pH 8.0, 0.1% Triton X-100, 150 mM KCl). A stock solution of 20 mM DCIP was prepared in enzyme buffer and filtered through filter paper (20−25-μm pore size) just before use. Loss in absorbance by DCIP was measured at 595 nm at room temperature in a stepped time course (8 × 2 min, 8 × 3 min, 6 × 5 min). The observed decrease in absorbance over time was linear between 8 and 26 min. Therefore, for each concentration of inhibitor tested, a value for DHODH's Vmax was estimated by linear regression within this time frame. The IC50 is defined as the concentration of inhibitor that gives Vmax([I]) = Vmax(DMSO)/2.

U2OS or ARN8 cells = experiment: Uridine uptake assay ([3H]uridine, scintillation counting); format: cell-based, human; settings: 5 μM
Experimental: 100,000 (24-h assay) or 200,000 (15-min assay) U2OS or ARN8 cells were seeded per well in 6-well plates in 2 ml of fully supplemented culture medium as described above. 24 h postseeding, medium was removed, and cells were treated with the indicated compounds for either 15 min or 24 h in 2 ml of FBS-free medium supplemented with serum replacement 3 (Sigma–Aldrich #S2640). At the end of the treatment, an extra well of each treatment was harvested in 100 μl of 1× LDS (62.5 mM Tris-HCl, pH 6.8, 10% glycerol, 1% LDS) for quantification of protein levels to determine the level of cell death after 24 h for normalization with protein concentration determined by the Bio-Rad DC protein assay (Bio-Rad #5000111). [^3H]Uridine (PerkinElmer Life Sciences #NET367001MC) was prepared in serum replacement medium to a final emission of 3.65 μCi ml^−1 and added to cells for 10 min. Following 10 min, the cells were washed with four quick changes of 1 mM unlabeled uridine prepared in ice-cold transport buffer (20 mM Tris-HCl, pH 7.4, 130 mM NaCl, 3 mM K2HPO4, 1 mM MgCl2, 5 mM glucose, 2 mM CaCl2). The samples were then harvested in 100 μl of 10% SDS. 900 μl of Optiphase Supermix (PerkinElmer Life Sciences #1200-439) was added to each sample, and the cpm were measured using a 1450 MicroBeta JET for liquid scintillation (PerkinElmer Life Sciences/Wallac).

ARN8 cells [2] = experiment: SRB assay in ARN8 cells with nucleotide supplementation; format: cell-based, human; settings: 72 h, 100 μM uridine, 1 mM DHO or 1 mM OA
Experimental: Cells were seeded in a 96-well plate at a density of 500 cells/well (ARN8) in a volume of 100 μl of fully supplemented growth medium and incubated as described above for 24 h. SKNSH p53 WT pCMV neo cells were seeded at 7500 cells/well in 100 μl of fully supplemented growth medium and incubated as described above for 24 h. SKNSH ddp53 cells were seeded at a density of 6000 cells/well in 100 μl of fully supplemented growth medium and incubated as described above for 24 h. Cells were checked for adherence and treated with tenovins in DMSO supplemented with 100 μM uridine, 1 mM DHO, or 1 mM OA. The final percentage of DMSO per well was <0.2%. Cells were incubated for 72 h with compounds. Following incubation, medium was removed from the cells and replaced by 150 μl of 1× sterile PBS and 50 μl of 40% (w/v) TCA (Sigma–Aldrich #T9159) in distilled H2O and incubated at 4 °C for 1 h to fix the cells. The plate was then washed with three changes of water with all liquid allowed to drain from the plate. 50 μl of 0.4% (w/v) sulforhodamine B (Sigma–Aldrich #230162) with 1% (v/v) acetic acid (Sigma–Aldrich #320099) in H2O was added to each well and incubated for 30 min. Excess dye was washed out with three changes of 1% (v/v) acetic acid in H2O. The remaining dye was solubilized in 100 μl of 10 mM unbuffered Tris-base (Sigma–Aldrich #93362) per well, and absorbance was read at 490 nm on a spectrophotometer.

ARN8 cells [3] = experiment: Propidium iodide flow cytometry (cell cycle); format: cell-based, human; settings: 48 h; for Effect on cell cycle distribution / cell death: 10 μM tenovins 1 and 33 or 200 nM brequinar; for Effect of uridine or OA on the compound's cell cycle effect: 10 μM, 100 μM uridine or 1 mM OA, not with DHO
Experimental: ARN8 cells were seeded at 30,000 per well, respectively, in 6-well plates and incubated for 24 h. All compounds were diluted to 10× stocks in fully supplemented growth medium. Cells were incubated with the compounds for 48 h. Cell culture medium was removed and placed into Falcon tubes. Wells were washed twice with 1× PBS with the washes saved in the Falcon tubes to harvest floating dead cells. Cells remaining in the wells were trypsinized with 200 μl of 1× trypsin/EDTA (Sigma–Aldrich #T4174). Following detachment, fresh growth medium was added to each well, and the contents were removed and placed in the relevant tubes. Any remaining cells in the plate were then gathered by washing twice with 2 ml of 1× PBS with the washes saved and added to the relevant tubes. The tubes were centrifuged at 500 × g for 5 min. Cell pellets were washed twice with 1× PBS. The pellets were resuspended in 1 ml of 1× PBS and added dropwise to 3 ml of 99.9% ethanol while vortex mixing at high speed. Cells were then fixed at –20 °C for 24 h. Following fixation, cells were pelleted at 1390 × g for 5 min. The cells were washed three times with 2 ml of 1× PBS containing 3% FBS with centrifugation at 1390 × g between washes. Cells were resuspended in 0.5 ml of PBS containing 10 μg of propidium iodide (Invitrogen #P3566) and 50 μg of RNase A (Sigma–Aldrich #R4642) and incubated on ice in the dark for 10 min. Flow cytometry was performed using a BD Biosciences FACScan or FACSCalibur with 10,000 events counted within the gating region.

[4] = test system: p53 transcriptional activity in ARN8 cells; experiment: p53 transcriptional activation (CPRG) cell reporter assay; format: cell-based, human; settings: 18 h, 100 μM uridine, 1 mM DHO or 1 mM OA
Experimental: ARN8 cells were seeded in a 96-well plate at a density of 20,000 cells/well in a volume of 100 μl of fully supplemented growth medium. […] Subsequently, 50 μl of 1× reporter lysis buffer (Promega #E4030) was added to each well, and the plates were stored at –20 °C for at least 2 h.

[5] = test system: p53, hdm2 and p21 in ARN8 cells; experiment: Western blotting of p53 and p53 targets in ARN8 cells; format: cell-based, human; settings: 5 μM; for Treatment time at which p53 protein levels increased: blotted at 2, 4, 6 or 8 h; for Effect of OA and uridine on p53 protein and downstream signaling (hdm2, p21): 24 h, 100 μM uridine or 1 mM OA
Experimental: 150,000 ARN8, HCT116 p53 WT, or HCT116 p53 KO cells were seeded on 6-well plates in 2 ml of fully supplemented medium as described above. […] A protein assay was conducted using the Bio-Rad DC protein analysis kit (Bio-Rad #5000111), and the protein levels were normalized between samples. […] The transfer was conducted using the Trans-Blot Turbo preset program for standard semidry transfer (30 min). All membranes were blocked in 5% milk (w/v) in PBS-T containing 0.1% Tween 20 (v/v) (Sigma–Aldrich P9416). All antibodies were made up in 5% milk (w/v) in PBS-T. All antibody incubations were either overnight at 4 °C or at room temperature for 1 h. […] All secondary antibodies were polyclonal rabbit anti-mouse antibodies conjugated to horseradish peroxidase (DAKO, Glostrup, Denmark #P0260) and diluted at concentrations of 1:2000 (v/v). […] All blots were normalized to their respective vehicle control and quantified using ImageLab where quantification was required (Bio-Rad version 5.2.1 build 11).

[6] = test system: HCT116 p53 WT and p53 KO cells; experiment: IncuCyte cell confluence measurements; format: cell-based, human; settings: HCT116 p53 WT or KO, 5 μM, confluence over 72 h
Experimental: ARN8 or HCT116 p53 WT or KO cells were seeded in a 96-well plate at a density of 4000 cells/well in a volume of 100 μl. […] The medium of the assigned wells was replaced with 100 μl of fresh medium containing a 5 μM concentration of the corresponding Tenovins or DMSO control and placed in an IncuCyte S3 system located inside a CO2 incubator.

recombinant human DHODH [7] = target: T1, recombinant human DHODH; experiment: Thermal shift assay using intrinsic FMN fluorescence; format: binding; settings: 200 μM compound, 5 μM DHODH
Experimental: 5 μM recombinant human DHODH prepared as described ([36]) was used in this assay. The assay relied upon the intrinsic fluorescence of the embedded flavin mononucleotide (FMN) within the DHODH as a proxy for unfolding of DHODH across a temperature range, much in the same manner as the thermal shift assay using SYPRO Orange ([37]). A PCR machine with a filter set with an excitation range of 475–500 nm and an emission range of 520–590 nm was used for this experiment. 5 μM DHODH was prepared with 200 μM compound with a final concentration of 0.5% DMSO in each sample in buffer consisting of 50 mM HEPES and 150 mM NaCl. The final assay volume was 10 μl. The samples were heated across a temperature range with the fluorescence emission from FMN monitored at each temperature.

[8] = 6 nM recombinant human DHODH, average of three independent repeats, read-out: DHODH inhibition (enzyme assay), IC50

T1 sequence (Q02127 whole entry): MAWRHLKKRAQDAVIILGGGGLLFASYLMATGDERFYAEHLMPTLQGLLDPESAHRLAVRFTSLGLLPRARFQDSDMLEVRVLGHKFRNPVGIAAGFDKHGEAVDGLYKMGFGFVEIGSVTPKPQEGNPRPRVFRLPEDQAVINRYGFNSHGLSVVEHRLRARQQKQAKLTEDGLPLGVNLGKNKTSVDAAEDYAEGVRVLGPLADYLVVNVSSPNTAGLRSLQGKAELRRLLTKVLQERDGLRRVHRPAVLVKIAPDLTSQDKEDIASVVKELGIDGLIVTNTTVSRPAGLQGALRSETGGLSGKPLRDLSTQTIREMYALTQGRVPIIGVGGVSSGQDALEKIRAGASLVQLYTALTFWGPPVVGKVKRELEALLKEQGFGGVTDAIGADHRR

CC(=O)Nc1ccc(NC(=S)NC(=O)c2ccc(C(C)(C)C)cc2)cc1 [Tenovin 1]
IC50 (recombinant human DHODH [1]; [8]): 113 nM
IC50 (recombinant human DHODH [1]; enzyme assay, read-out: DHODH IC50): ~113 nM
Inhibition of uridine uptake after 15 min (U2OS or ARN8 cells): unable to alter uridine uptake
Effect of supplementation on tumor cell growth inhibition (SRB) (ARN8 cells [2]): reduced upon supplementation with uridine or OA
Effect on cell cycle distribution / cell death (ARN8 cells [3]): increase in cell death
Effect of uridine or OA on the compound's cell cycle effect (ARN8 cells [3]): effect on the cell cycle largely prevented

CN(C)CCCCC(=O)Nc1ccc(NC(=S)NC(=O)c2ccc(C(C)(C)C)cc2)cc1 [Tenovin 6]
IC50 (recombinant human DHODH [1]; [8]): 500 nM
Effect of supplementation on induction of p53 transcriptional activity [4]: partially ablated
Inhibition of uridine uptake after 15 min (U2OS or ARN8 cells): able to inhibit uridine uptake
Treatment time at which p53 protein levels increased [5]: 2 h
Effect of OA and uridine on p53 protein and downstream signaling (hdm2, p21) [5]: ablation of p53 downstream signaling
Effect on cell growth in p53 KO versus p53 WT cells [6]: effects on cell growth ablated in the p53 KO cells
Effect of supplementation on tumor cell growth inhibition (SRB) (ARN8 cells [2]): no rescue of cell viability

CN(C)CCCCC(=O)Nc1ccc(NC(=O)NC(=O)c2ccc(C(C)(C)C)cc2)cc1 [Tenovin 33]
IC50 (recombinant human DHODH [1]; [8]): > 20000 nM
Inhibition of DHODH enzyme activity (in words) (recombinant human DHODH [1]; biochemical assay): incapable of inhibiting DHODH enzyme activity
Stabilization of DHODH in thermal shift assay (recombinant human DHODH [7]): nor was it able to stabilize DHODH in a thermal shift assay
Effect of supplementation on induction of p53 transcriptional activity [4]: completely ablated
Inhibition of uridine uptake after 15 min (U2OS or ARN8 cells): able to inhibit uridine uptake
Treatment time at which p53 protein levels increased [5]: 8 h
Effect of OA and uridine on p53 protein and downstream signaling (hdm2, p21) [5]: ablation of p53 downstream signaling
Effect of supplementation on tumor cell growth inhibition (SRB) (ARN8 cells [2]): reduced upon supplementation with uridine or OA
Effect on cell cycle distribution / cell death (ARN8 cells [3]): increase in the percentage of cells in S-phase
Effect of uridine or OA on the compound's cell cycle effect (ARN8 cells [3]): effect on the cell cycle largely prevented

Cc1c(-c2ccc(-c3ccccc3F)cc2)nc2ccc(F)cc2c1C(=O)O [brequinar, reference compound]
Effect on cell cycle distribution / cell death (ARN8 cells [3]): increase in the percentage of cells in S-phase
